Experimental data taken from US8378104B2 (OSI Pharmaceuticals, LLC, priority 2010, dated 2013).
Counter-ions that a name gives are not always drawn. Like-named read-outs stand apart in the source and are kept apart here.

Legend:
TAK1-TAB1 fusion protein = target: T1, TAK1-TAB1 fusion protein (Homo sapiens, UniProt O43318); assay: TAK1 biochemical assay (AlphaScreen, GST-MAP2K7 substrate)
T1 construct: purchased Carna
T1 sequence (O43318 with tags, fused parts or gaps limits assumed): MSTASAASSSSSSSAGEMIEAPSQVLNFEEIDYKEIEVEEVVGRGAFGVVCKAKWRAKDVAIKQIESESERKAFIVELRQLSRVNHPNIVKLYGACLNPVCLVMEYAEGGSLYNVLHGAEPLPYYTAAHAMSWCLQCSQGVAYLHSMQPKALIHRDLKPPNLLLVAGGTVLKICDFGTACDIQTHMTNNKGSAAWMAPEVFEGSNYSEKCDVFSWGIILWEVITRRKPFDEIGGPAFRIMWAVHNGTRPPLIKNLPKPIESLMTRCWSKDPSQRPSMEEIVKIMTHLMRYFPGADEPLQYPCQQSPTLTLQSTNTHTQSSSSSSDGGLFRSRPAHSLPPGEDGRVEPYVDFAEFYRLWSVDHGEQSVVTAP

pJNK in HCT-116 cells = assay: Phospho-JNK (Thr183/Tyr185) Meso Scale ELISA assay, TNFα-stimulated HCT-116 cells; assay type: cell-based; details: Homo sapiens, read-out: mean HCT-116 pJNK ELISA IC50 (Col. B)
In short: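 Meso Scale ELISA read of phospho-JNK (Thr183/Tyr185) in lysed HCT-116 cells. Cells were serum-reduced to 1% FCS for 2 hours, exposed to test drug for 4 hrs at 37° C, then given 10 ng/mL TNFα (final) for 10 minutes before lysis.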

p-p38 in HCT-116 cells = assay: Phospho-p38 Meso Scale ELISA assay, TNFα-stimulated HCT-116 cells; assay type: cell-based; details: Homo sapiens, read-out: mean HCT-116 p-p38 ELISA IC50 (Col. C)
In short: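 Phospho-p38 measured by Meso Scale ELISA on diluted lysates, captured overnight at 4° C. Before lysis, HCT-116 cells were serum-reduced (1% FCS, 2 h), treated with compounds 4 h at 37° C and stimulated 10 min with 10 ng/mL TNFα final.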

[1] = TAK1-TAB1 fusion protein, GST-MAP2K7 substrate, read-out: mean TAK1 IC50 (Col. A)

SMILES | IC50 (TAK1-TAB1 fusion protein; [1]) [nM] | IC50 (pJNK in HCT-116 cells) [nM] | IC50 (p-p38 in HCT-116 cells) [nM] | IC50 (TAK1-TAB1 fusion protein) [nM]
CC(=O)N1CCC(n2cc(-c3cnc(N)c4oc(-c5ccc6scnc6c5)cc34)cn2)CC1 [Example 107, 1-(4-{4-[7-amino-2-(1,3-benzothiazol-5-yl)furo[2,3-c]pyridin-4-yl]-1H-pyrazol-1-yl}piperidin-1-yl)ethanone] | 100 to 1000 | 100 to 1000 | 100 to 1000 | 
CC(=O)N1CCC(n2cc(-c3cnc(N)c4oc(-c5cc(C(F)(F)F)cc(C(F)(F)F)c5)cc34)cn2)CC1 [Example 91, 1-[4-(4-{7-amino-2-[3,5-bis(trifluoromethyl)phenyl]furo[2,3-c]pyridin-4-yl}-1H-pyrazol-1-yl)piperidin-1-yl]ethanone] | > 10000 | 1000 to 10000 | 1000 to 10000 | 
CC(=O)N1CCC(n2cc(-c3cnc(N)c4oc(-c5ccc6[nH]ncc6c5)cc34)cn2)CC1 [Example 94, 1-(4-{4-[7-amino-2-(1H-indazol-5-yl)furo[2,3-c]pyridin-4-yl]-1H-pyrazol-1-yl}piperidin-1-yl)ethanone] | 100 to 1000 | 100 to 1000 | 1000 to 10000 | 
CC(C)(C)OC(=O)N1CCC(n2cc(-c3cnc(N)c4oc(-c5cccc6cnsc56)cc34)cn2)CC1 [Example 302, 4-[4-(7-amino-2-benzo[d]isothiazol-7-yl-furo[2,3-c]pyridin-4-yl)-pyrazol-1-yl]-piperidine-1-carboxylic acid tert-butyl ester] | 100 to 1000 | 100 to 1000 | 1000 to 10000 | 
CC(=O)N1CCC(n2cc(-c3cnc(N)c4oc(-c5ccccc5C#N)cc34)cn2)CC1 [Example 171, 2-{4-[1-(1-acetylpiperidin-4-yl)-1H-pyrazol-4-yl]-7-aminofuro[2,3-c]pyridin-2-yl}benzonitrile] | 100 to 1000 | 1000 to 10000 | 1000 to 10000 | 
CC(=O)N1CCC(n2cc(-c3cnc(N)c4oc(-c5ccc6ncn(C)c6c5)cc34)cn2)CC1 [Example 111, 1-(4-{4-[7-amino-2-(1-methyl-1H-benzimidazol-6-yl)furo[2,3-c]pyridin-4-yl]-1H-pyrazol-1-yl}piperidin-1-yl)ethanone] | 100 to 1000 | 1000 to 10000 | > 10000 | 
Nc1ncc(-c2cnn([C@H]3CC[C@H](O)CC3)c2)c2cc(-c3cc(F)cc4cnsc34)oc12 [Example 238, trans-4-{4-[7-amino-2-(5-fluoro-1,2-benzothiazol-7-yl)furo[2,3-c]pyridin-4-yl]-1H-pyrazol-1-yl}cyclohexanol diformate salt] | 100 to 1000 | < 100 | 100 to 1000 | 
CC(=O)N1CCC(n2cc(-c3cnc(N)c4oc(-c5cccc([N+](=O)[O-])c5)cc34)cn2)CC1 [Example 112, 1-(4-{4-[7-amino-2-(3-nitrophenyl)furo[2,3-c]pyridin-4-yl]-1H-pyrazol-1-yl}piperidin-1-yl)ethanone] | < 100 | 100 to 1000 | 100 to 1000 | 
CC(=O)N1CCC(n2cc(-c3cnc(N)c4oc(-c5cccc6ccccc56)cc34)cn2)CC1 [Example 105, 1-(4-{4-[7-amino-2-(naphthalen-1-yl)furo[2,3-c]pyridin-4-yl]-1H-pyrazol-1-yl}piperidin-1-yl)ethanone] | 100 to 1000 | 1000 to 10000 | 1000 to 10000 | 
Nc1ncc(-c2cnn([C@H]3CC[C@H](O)CC3)c2)c2cc(-c3cccc4nnsc34)oc12 [Example 229, trans-4-{4-[7-amino-2-(1,2,3-benzothiadiazol-7-yl)furo[2,3-c]pyridin-4-yl]-1H-pyrazol-1-yl}cyclohexanol] |  | < 100 | < 100 | < 100
CC(=O)N1CCC(n2cc(-c3cnc(N)c4oc(-c5ccc(S(C)(=O)=O)cc5)cc34)cn2)CC1 [Example 129, 1-[4-(4-{7-amino-2-[4-(methylsulfonyl)phenyl]furo[2,3-c]pyridin-4-yl}-1H-pyrazol-1-yl)piperidin-1-yl]ethanone] | > 10000 | > 10000 | > 10000 | 
CC(=O)N1CCC(n2cc(-c3cnc(N)c4oc(-c5ccccc5C)cc34)cn2)CC1 [Example 410, 1-(4-{4-[7-amino-2-(2-methylphenyl)furo[2,3-c]pyridin-4-yl]-1H-pyrazol-1-yl}piperidin-1-yl)ethanone] | 100 to 1000 | 100 to 1000 | 1000 to 10000 | 
CC(=O)N1CCC(n2cc(-c3cnc(N)c4oc(-c5cccc6nnsc56)cc34)cn2)CC1 [Example 224, 1-(4-{4-[7-amino-2-(1,2,3-benzothiadiazol-7-yl)furo[2,3-c]pyridin-4-yl]-1H-pyrazol-1-yl}piperidin-1-yl)ethanone diformate salt] | < 100 | < 100 | < 100 | 
CC(=O)N1CCC(n2cc(-c3cnc(N)c4oc(-c5cccc(S(C)(=O)=O)c5)cc34)cn2)CC1 [Example 101, 1-[4-(4-{7-amino-2-[3-(methylsulfonyl)phenyl]furo[2,3-c]pyridin-4-yl}-1H-pyrazol-1-yl)piperidin-1-yl]ethanone] | 1000 to 10000 | 1000 to 10000 | 1000 to 10000 | 
CC(=O)N1CCC(n2cc(-c3cnc(N)c4oc(-c5ccc6sccc6c5)cc34)cn2)CC1 [Example 106, 1-(4-{4-[7-amino-2-(1-benzothiophen-5-yl)furo[2,3-c]pyridin-4-yl]-1H-pyrazol-1-yl}piperidin-1-yl)ethanone] | 100 to 1000 | 100 to 1000 | 100 to 1000 | 

The remaining lines, values ahead:

IC50 (TAK1-TAB1 fusion protein; [1]) [nM] | IC50 (pJNK in HCT-116 cells) [nM] | IC50 (p-p38 in HCT-116 cells) [nM] | IC50 (TAK1-TAB1 fusion protein) [nM] | SMILES
1000 to 10000 | 100 to 1000 | 100 to 1000 |  | Nc1ncc(-c2cn[nH]c2)c2cc(-c3cccc4cnccc34)oc12 [Example 69, 2-(isoquinolin-5-yl)-4-(1H-pyrazol-4-yl)furo[2,3-c]pyridin-7-amine]
< 100 | 100 to 1000 | 100 to 1000 |  | Cn1cc(-c2cnc(N)c3oc(-c4c[nH]c5cnccc45)cc23)cn1 [Example 88, 4-(1-methyl-1H-pyrazol-4-yl)-2-(1H-pyrrolo[2,3-c]pyridin-3-yl)furo[2,3-c]pyridin-7-amine trifluoroacetic acid salt]
100 to 1000 | 100 to 1000 | 100 to 1000 |  | Nc1ncc(-c2cnn(C3CCNCC3)c2)c2cc(-c3cccc4cnccc34)oc12 [Example 33, 2-(isoquinolin-5-yl)-4-[1-(piperidin-4-yl)-1H-pyrazol-4-yl]furo[2,3-c]pyridine-7-amine]
< 100 | 100 to 1000 | 1000 to 10000 |  | Nc1ncc(-c2cn[nH]c2)c2cc(-c3c[nH]c4cnccc34)oc12 [Example 87, 4-(1H-pyrazol-4-yl)-2-(1H-pyrrolo[2,3-c]pyridin-3-yl)furo[2,3-c]pyridin-7-amine trifluoroacetic acid salt]
100 to 1000 | 100 to 1000 | 100 to 1000 |  | Nc1ncc(-c2cnn(C3CC(=O)C3)c2)c2cc(-c3csc4cnccc34)oc12 [Example 315, 3-[4-(7-amino-2-thieno[2,3-c]pyridin-3-yl-furo[2,3-c]pyridin-4-yl)-pyrazol-1-yl]-cyclobutanone]
 | 100 to 1000 | 100 to 1000 | 100 to 1000 | Cn1cc(-c2cnc(N)c3oc(-c4csc5cnccc45)cc23)cn1 [Example 290, 4-(1-methyl-1H-pyrazol-4-yl)-2-thieno[2,3-c]pyridin-3-yl-furo[2,3-c]pyridin-7-ylamine]
< 100 | 100 to 1000 | 100 to 1000 |  | CC(=O)N1CCC(n2cc(-c3cnc(N)c4oc(-c5cccc6[nH]ncc56)cc34)cn2)CC1 [Example 177, 1-(4-{4-[7-amino-2-(1H-indazol-4-yl)furo[2,3-c]pyridin-4-yl]-1H-pyrazol-1-yl}piperidin-1-yl)ethanone]
 | 100 to 1000 | 1000 to 10000 | 1000 to 10000 | Cc1nn(C)cc1-c1cnc(N)c2oc(-c3csc4cnccc34)cc12 [Example 293, 4-(1,3-dimethyl-1H-pyrazol-4-yl)-2-thieno[2,3-c]pyridin-3-yl-furo[2,3-c]pyridin-7-ylamine]
< 100 | 100 to 1000 | 100 to 1000 |  | Nc1ncc(-c2cnn(C3CCNCC3)c2)c2cc(-c3csc4cnccc34)oc12 [Example 322, 4-(1-piperidin-4-yl-1H-pyrazol-4-yl)-2-thieno[2,3-c]pyridin-3-yl-furo[2,3-c]pyridin-7-ylamine]
1000 to 10000 | 1000 to 10000 | 1000 to 10000 |  | CC(=O)N1CCC(n2cc(-c3cnc(N)c4oc(-c5cccc6nn(C)cc56)cc34)cn2)CC1 [Example 192, 1-(4-{4-[7-amino-2-(2-methyl-2H-indazol-4-yl)furo[2,3-c]pyridin-4-yl]-1H-pyrazol-1-yl}piperidin-1-yl)ethanone]
< 100 | 100 to 1000 | 100 to 1000 |  | Nc1ncc(-c2cnn(C3CCCCC3)c2)c2cc(-c3c[nH]c4cnccc34)oc12 [Example 89, 4-(1-cyclohexyl-1H-pyrazol-4-yl)-2-(1H-pyrrolo[2,3-c]pyridin-3-yl)furo[2,3-c]pyridin-7-amine]
